Data from PMC6724035, “Evaluation of Tumor-Targeting Properties of an Antagonistic Bombesin Analogue RM26 Conjugated with a Non-Residualizing Radioiodine Label Comparison with a Radiometal-Labelled Counterpart” (Pharmaceutics, 2019).
Where a SMILES comes first, the peptide text is derived from it. [ ]: non-standard residue; d: D form. Tyr(3-I) = N[C@@H](Cc1ccc(O)c(I)c1)C(=O)O; Sta = CC(C)C[C@H](N)[C@@H](O)CC(=O)O; AEEA = NCCOCCOCC(=O)O

How the values were obtained:
[1] = 0.5 h; 300 µg phosphoramidon co-injected; non-tumour bearing NMRI mice
Procedure: Two groups of 4 mice were used for this experiment. Biodistribution of [^125I]I-Tyr-PEG2-RM26 was evaluated in female NMRI mice (weight: 29.6 ± 1.7 g). Non-tumour bearing mice as a control group were injected with 40 pmol of [^125I]I-Tyr-PEG2-RM26 (30 kBq, 100 μL in PBS) into the tail vein. Another group of mice was injected with same activity by co-injection of PA (15 µL of 20 mg/mL stock solution, 300 µg). After 0.5 h, mice were euthanized by dislocation of their neck, and blood samples were collected. Salivary glands, thyroid, lung, liver, spleen, pancreas, stomach, small intestine, kidneys, […], muscle, and bone were collected and weighed. The organ radioactivity was measured in a gamma-counter and uptake values of organs were calculated as percentage injected dose per gram tissue (% ID/g).

PC-3 cells = experiment: Cellular processing assay (membrane-bound and internalized radioactivity); type: cell-based, human; details: 1 nM, 37 °C
Procedure: At predetermined time points (1, 2, 4, 8, 24 h), incubation media was aspirated, cells were washed with serum-free media, and membrane-bound and internalized radioactivity were collected using the method described earlier. The membrane-bound radiolabelled conjugate were removed from cells by treatment with 4 M urea solution in a 0.1 M glycine buffer, pH 2, for 5 min on ice. The cell debris containing the internalized conjugate was detached by treatment with 1 M NaOH. Radioactivity of samples was measured, and percentage of membrane-bound, internalized and total radioactivity was calculated. The experiments were performed in triplicate.

CC(C)C[C@H](NC(=O)C[C@H](O)[C@H](CC(C)C)NC(=O)[C@H](Cc1c[nH]cn1)NC(=O)CNC(=O)[C@@H](NC(=O)[C@H](C)NC(=O)[C@H](Cc1c[nH]c2ccccc12)NC(=O)[C@H](CCC(N)=O)NC(=O)[C@@H](Cc1ccccc1)NC(=O)COCCOCCNC(=O)[C@@H](N)Cc1ccc(O)c(I)c1)C(C)C)C(N)=O [[^125I]I-Tyr-PEG2-RM26] (H-[Tyr(3-I)][AEEA][dF]QWAVGH[Sta]L-NH2)
Influence of PA co-injection on blood clearance rate or uptake in normal non-targeted organs and tissues [1]: did not show any significant influence | Uptake in GRPR-positive organs (pancreas, small intestines, stomach) after co-injection of PA [1]: No significant increase | Cellular processing pattern (PC-3 cells): quite fast internalization during the first hour
